Data set [1] can be described thus: Lipophilicity, log P of the compound. The settings on record: octanol/water.
Data set [2] has as its system Zone of skin. Put plainly: Upregulation of SIRT-1 gene expression in human epidermal full thickness skin cultures at 1 % after 24 hrs by real time PCR analysis relative to control. It counts as functional. (Quantitative PCR measures a nucleic acid by following its amplification.)
Data set [3] concerns Zone of skin. Put plainly: Upregulation of elastin gene expression in human epidermal full thickness skin cultures at 1 % after 24 hrs by real time PCR analysis relative to control. It counts as functional.
The test system of data set [4] is Zone of skin. The experiment in a line: Toxicity in human epidermal full thickness skin cultures assessed as intact and healthy stratum corneum at 1 % after 24 hrs by hematoxylin/eosin staining based assay.
Data set [5] relates to Zone of skin. The experiment in a line: Toxicity in human epidermal full thickness skin cultures assessed as intact and healthy keratinocytes at 1 % after 24 hrs by hematoxylin/eosin staining based assay.
Data set [6] relates to Zone of skin. The experiment in a line: Toxicity in human epidermal full thickness skin cultures assessed as intact and healthy fibroblasts at 1 % after 24 hrs by hematoxylin/eosin staining based assay.
A further data set relates to NHDF. Put plainly: Upregulation of SIRT-1 gene expression in NHDF by real time RT-PCR analysis relative to control. It counts as functional, Homo sapiens.
The subject of data set [7] is Zone of skin. The experiment in a line: Upregulation of procollagen type III gene expression in human epidermal full thickness skin cultures at 1 % after 24 hrs by real time PCR analysis relative to control. It counts as functional.
Data set [8] deals with Zone of skin. The experiment in a line: Upregulation of type IV collagen alpha 1 gene expression in human epidermal full thickness skin cultures at 1 % after 24 hrs by real time PCR analysis relative to control. It counts as functional.
In data set [9] the test system is Zone of skin. The experiment in a line: Upregulation of type IV collagen alpha 2 gene expression in human epidermal full thickness skin cultures at 1 % after 24 hrs by real time PCR analysis relative to control. It counts as functional.
Data set [10] deals with Zone of skin. The experiment in a line: Upregulation of TIMP 1 gene expression in human epidermal full thickness skin cultures at 1 % after 24 hrs by real time PCR analysis relative to control. It counts as functional.
Data set [11] relates to Zone of skin. The experiment in a line: Upregulation of TIMP 2 gene expression in human epidermal full thickness skin cultures at 1 % after 24 hrs by real time PCR analysis relative to control. It counts as functional.
For data set [12], the system named is Zone of skin. Put plainly: Upregulation of catalase gene expression in human epidermal full thickness skin cultures at 1 % after 24 hrs by qPCR analysis relative to control. It counts as functional.
In data set [13] the test system is Zone of skin. The experiment in a line: Upregulation of LOX gene expression in human epidermal full thickness skin cultures at 1 % after 24 hrs by qPCR analysis relative to control. It counts as functional.
The subject of data set [14] is Zone of skin. The experiment in a line: Upregulation of SOD 1 gene expression in human epidermal full thickness skin cultures at 1 % after 24 hrs by qPCR analysis relative to control. It counts as functional.
Data set [15] relates to Zone of skin. The experiment in a line: Upregulation of SOD 2 gene expression in human epidermal full thickness skin cultures at 1 % after 24 hrs by qPCR analysis relative to control. It counts as functional.
For data set [16], the system named is Zone of skin. Put plainly: Upregulation of MT1H gene expression in human epidermal full thickness skin cultures at 1 % after 24 hrs by qPCR analysis relative to control. It counts as functional.
Data set [17] relates to Zone of skin. Put plainly: Upregulation of MT2A gene expression in human epidermal full thickness skin cultures at 1 % after 24 hrs by qPCR analysis relative to control. It counts as functional.
Data set [18] has as its system Zone of skin. The experiment in a line: Upregulation of FBN 1 gene expression in human epidermal full thickness skin cultures at 1 % after 24 hrs by qPCR analysis relative to control. It counts as functional.
The subject of data set [19] is Zone of skin. The experiment in a line: Upregulation of LAMB 1 gene expression in human epidermal full thickness skin cultures at 1 % after 24 hrs by qPCR analysis relative to control. It counts as functional.
The test system of data set [20] is Zone of skin. The experiment in a line: Upregulation of PCNA gene expression in human epidermal full thickness skin cultures at 1 % after 24 hrs by qPCR analysis relative to control. It counts as functional.
Data set [21] has as its system Zone of skin. Put plainly: Upregulation of HBEGF gene expression in human epidermal full thickness skin cultures at 1 % after 24 hrs by qPCR analysis relative to control. It counts as functional.
For data set [22], the system named is Zone of skin. Put plainly: Upregulation of IGF 1 gene expression in human epidermal full thickness skin cultures at 1 % after 24 hrs by qPCR analysis relative to control. It counts as functional.
The test system of data set [23] is Zone of skin. The experiment in a line: Upregulation of NGF gene expression in human epidermal full thickness skin cultures at 1 % after 24 hrs by qPCR analysis relative to control. It counts as functional.
For data set [24], the system named is Zone of skin. Put plainly: Upregulation of TGF gene expression in human epidermal full thickness skin cultures at 1 % after 24 hrs by qPCR analysis relative to control. It counts as functional.

As a reminder, the logP is a log measure of how a compound divides between an organic and an aqueous phase. Lower therefore signals a more hydrophilic compound.

Compound `Oc1ccc(/C=C/c2cc(O)cc(O)c2)cc1` [RESVERATROL] gave a logP in [1] of 3.1. The “fold change (FC)” value in the data set with Zone of skin [2] is 1.8. Also, in the data set on Zone of skin [3], the Activity was found to be 180%.
For `CC(=O)Oc1ccc(/C=C/c2cc(O)cc(O)c2)cc1`, the Activity entry is listed as “Non-toxic” in the data set on Zone of skin [4]; “Non-toxic” in the data set on Zone of skin [5]; “Non-toxic” in the data set with Zone of skin [6]; 335% in the data set on Zone of skin [2]; 220% in the data set with Zone of skin [7]; 170% with Zone of skin [8]. In addition, the Activity with Zone of skin [9] was 180%; in the data set with Zone of skin [3] it was 280%; with Zone of skin [10], 250%; in the data set on Zone of skin [11], 130%; in the data set with Zone of skin [12] it was 160%; with Zone of skin [13] it was 190%. For the same compound, the Activity in the data set on Zone of skin [14] stood at 160%; with Zone of skin [15] it was 170%; in the data set with Zone of skin [16], 6400%; with Zone of skin [17] it was 340%; in the data set with Zone of skin [18], 130%; with Zone of skin [19], 140%. Besides, the Activity with Zone of skin [20] stood at 540%; in the data set with Zone of skin [21], 190%; in the data set on Zone of skin [22], 264%; with Zone of skin [23], 672%; with Zone of skin [24] it was 200%. The “fold change (FC)” value in the data set with NHDF is reported as >3.3.

For the origin of these results see ChEMBL document CHEMBL3813606, “Synthesis and skin gene analysis of 4'-acetoxy-resveratrol (4AR), therapeutic potential for dermal applications” (Bioorg Med Chem Lett, 2016).
